# From patent publication US7671085B2, “Non-steroidal farnesoid X receptor modulators and methods for the use thereof” (The Salk Institute for Biological Studies, priority 2002, dated 2010)
# “Also recorded” adds a separate entry of the source.
# Biological target: T1, FXR (Homo sapiens, UniProt Q96RI1)
# T1 construct: using a full length FXR on a natural response element; expressed in transfected cells
# T1 sequence (Q96RI1 1-486): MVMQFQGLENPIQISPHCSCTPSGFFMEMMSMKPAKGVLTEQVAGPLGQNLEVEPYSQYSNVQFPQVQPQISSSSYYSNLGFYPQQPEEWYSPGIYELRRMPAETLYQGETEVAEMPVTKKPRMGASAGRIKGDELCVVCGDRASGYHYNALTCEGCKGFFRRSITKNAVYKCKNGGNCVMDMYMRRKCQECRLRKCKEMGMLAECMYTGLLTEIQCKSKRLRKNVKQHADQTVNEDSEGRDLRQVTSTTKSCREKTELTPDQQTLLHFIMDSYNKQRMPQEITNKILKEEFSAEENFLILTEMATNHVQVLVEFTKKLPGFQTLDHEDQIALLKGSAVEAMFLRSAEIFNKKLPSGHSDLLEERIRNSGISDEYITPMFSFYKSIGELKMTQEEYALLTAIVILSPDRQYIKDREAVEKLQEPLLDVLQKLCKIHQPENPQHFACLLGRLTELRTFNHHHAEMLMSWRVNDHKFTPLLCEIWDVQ
# Experiment: cell-based FXR transcription assay, FXR responsive promoter linked to luciferase reporter
# Conditions: for FXR activation, in words: cell-based reporter assay, SAR discussion; for RE^a / EC50: cell-based FXR reporter assay; for RE^a: footnote a not given; for EC50: determined with Prism 3.0
# Excerpt: In addition to ensuring that only cell permeable compounds were selected for further optimization, this approach allows for the detection of FXR activation in a natural system (i.e., correct folding of the protein and in the presence of a complete compliment of co-activators and co-repressors).
# The feasibility of creating high throughput screens (HTS) for ORs was explored using FXR as a candidate orphan receptor (OR) with a known activator, chenodeoxycholic acid (CDCA) as a ligand. The screen is based on the co-transfection of a full-length receptor with the reporter vector containing a natural hormone response element under a minimal eukaryotic promoter. […] Using this 384-well format, the high throughput screening (HTS) approach to FXR as a candidate OR was employed. […] A central question in the feasibility studies is whether this library is suitable for screening for nuclear receptor ligands. Samples of this library were first reformatted into a 384-well format and then subjected to the FXR cell-based assays described above and assessed for FXR-mediated transcriptional activity. Cells were exposed to approximately 10 μM of sample for 18 hrs prior to washing and luciferase analysis.
# EC50 values were determined with Prism 3.0 software via the activity of the subject compound in the previously described cell based assay.
SMILES,"FXR activation, in words",RE^a,EC50
COc1c(CN(C(=O)C2CC2)c2cccc(/C=C/C#N)c2)ccc2c1OC(C)(C)C=C2 [Compound 34],inactive,,
COC(=O)/C=C/c1cccc(N(Cc2ccc(/C=C/c3ccc(C)cc3)cc2)C(=O)C2CCCCC2)c1 [Compound 174],among the least active,0.83,
COC(=O)/C=C/c1cccc(N(Cc2ccc(/C=C/c3c(Cl)cccc3Cl)cc2)C(=O)NC(C)C)c1 [Compound 179],,0.15,216 nM
COC(=O)/C=C/c1cccc(N(Cc2ccc3c(c2OC)OC(C)(C)C=C3)C(=O)C2CCCCC2)c1 [Compound 65],,0.40,3.58 nM
COC(=O)C=Cc1cccc(N(Cc2ccc(C=Cc3ccc(OC)cc3)cc2)C(=O)C2CCCCC2)c1 [Compound 122],,1.67,
COC(=O)/C=C/c1cccc(N(Cc2ccc(/C=C/C(=O)OC(C)(C)C)cc2)C(=O)NC(C)C)c1 [Compound 145],,1.96,
COC(=O)C=Cc1cccc(N(Cc2ccc3c(c2OC)OC(C)(C)C(O)C3O)C(=O)c2ccccc2)c1 (stereo not shown) [Compound 94],did not improve the activity,,
COC(=O)/C=C/c1cccc(N(Cc2ccc3c(c2OC)OC(C)(C)[C@@H](O)[C@H]3O)C(=O)c2ccccc2)c1 (relative stereo) [Compound 93],did not improve the activity,,
COC(=O)/C=C/c1cccc(N(Cc2ccc3c(c2OC)OC(C)(C)C=C3)S(=O)(=O)c2ccc(C)cc2)c1 [Compound 82],inactive,,
COC(=O)C=Cc1cccc(N(Cc2ccc(C=CC(=O)OC(C)(C)C)cc2O)C(=O)C2CCCCC2)c1 [Compound 161],,0.12,
COC(=O)/C=C/c1cccc(N(Cc2ccc(/C=C/c3cccc(Cl)c3)cc2)C(=O)C(C)C)c1 [Compound 181],excellent activity,1.09,164 nM
COC(=O)/C=C/c1cccc(NC(=O)C2CCCCC2)c1 [Compound 132],,0.09,
COC(=O)CCc1cccc(N(Cc2ccc(/C=C/C(=O)OC(C)(C)C)cc2)C(=O)C2CCCCC2)c1 [Compound 139],only a two-fold decrease in potency,RE^a = 1.38,
COC(=O)C=Cc1cccc(N(Cc2ccc(-c3ccc(C(C)=O)s3)cc2)C(=O)C2CCCCC2)c1 [Compound 129],,1.48,
COC(=O)/C=C/c1cccc(N(Cc2ccc(/C=C/c3cc(C(F)(F)F)cc(C(F)(F)F)c3)cc2)C(=O)C(C)C)c1 [Compound 184],,0.13,
COC(=O)C=Cc1cccc(N(Cc2ccc(C=Cc3cccc(F)c3)cc2)C(=O)C2CCCCC2)c1 [Compound 201],excellent activity; also recorded: among the most active,1.36,
COC(=O)C=Cc1cccc(N(C)C(=O)C2CCCCC2)c1 [Compound 147],,0.09,
COC(=O)C=Cc1cccc(N(Cc2ccc(C=CCOc3ccccc3)cc2)C(=O)C2CCCCC2)c1 [Compound 158],only micromolar activity,0.64,
COC(=O)C=Cc1cccc(N(Cc2ccc(C=CC(=O)OC(C)(C)C)cc2)C(=O)C2CCCC2)c1 [Compound 142],excellent activity,2.16,
COC(=O)/C=C/c1cccc(N(C)Cc2ccc3c(c2OC)OC(C)(C)C=C3)c1 [Compound 79],inactive,,
COC(=O)C=Cc1cccc(N(Cc2ccc3c(c2OC)OC(C)(C)C=C3)C(=O)c2ccccc2)c1 [Compound 68],,0.83,
COCC=Cc1ccc(CN(C(=O)C2CCCCC2)c2cccc(C=CC(=O)OC)c2)cc1 [Compound 156],,1.63,
CC(C)(C)OC(=O)C=Cc1ccc(CN(C(=O)C2CCCCC2)c2cccc(C=CC(=O)OC(C)(C)C)c2)cc1 [Compound 134],marked decline in potency,1.06,
COC(=O)C=Cc1cccc(N(Cc2ccc(C(C)(C)C)cc2)C(=O)C2CCCCC2)c1 [Compound 148],,0.15,
COC(=O)C=Cc1ccc(CN(C(=O)C2CCCCC2)c2cccc(C=CC(=O)OC)c2)cc1 [Compound 150],,0.87,
COC(=O)C=Cc1cccc(N(Cc2ccc(C=CC(=O)OC(C)(C)C)cc2OC(C)=O)C(=O)C2CCCCC2)c1 [Compound 164],,0.16,
CC(C)(C)OC(=O)/C=C/c1cccc(N(Cc2ccc(CCC(=O)OC(C)(C)C)cc2)C(=O)C2CCCCC2)c1 [Compound 160],,0.64,
COC/C=C/c1cccc(N(Cc2ccc3c(c2OC)OC(C)(C)C=C3)C(=O)C2CC2)c1 [Compound 33],capable of activating FXR to a significant extent,,

# Next, values leading:
"FXR activation, in words",RE^a,EC50,SMILES
,0.09,,COC(=O)/C=C/c1cccc(N(Cc2ccc(-c3ccccc3OC)cc2)C(=O)NC(C)C)c1 [Compound 220]
,0.70,,COC(=O)/C=C/c1cccc(N(Cc2ccc(/C=C/c3cccc(C(F)(F)F)c3)cc2)C(=O)C(C)C)c1 [Compound 187]
,1.16,,COC(=O)/C=C/c1cccc(N(Cc2ccc(-c3cc(Cl)ccc3OC)cc2)C(=O)C2CCCCC2)c1 [Compound 241]
,0.84,,COC(=O)/C=C/c1cccc(N(Cc2ccc(-c3cccc(OC(F)(F)F)c3)cc2)C(=O)C2CCCCC2)c1 [Compound 253]
excellent activity,1.19,120 nM,COC(=O)/C=C/c1cccc(N(Cc2ccc(/C=C/c3ccc(F)cc3)cc2)C(=O)C(C)C)c1 [Compound 205]
,1.15,,COC(=O)/C=C/c1cccc(N(Cc2ccc(-c3ccc(F)c(F)c3)cc2)C(=O)C(C)C)c1 [Compound 214]
,0.49,,COC(=O)/C=C/c1cccc(N(Cc2ccc(-c3cccc(Cl)c3)cc2)C(=O)NC(C)C)c1 [Compound 234]
,0.13,,COC(=O)/C=C/c1cccc(N(Cc2ccc(/C=C/c3cc(C(F)(F)F)cc(C(F)(F)F)c3)cc2)C(=O)NC(C)C)c1 [Compound 185]
,0.42,,COC(=O)C=Cc1cccc(N(Cc2ccc(C=Cc3scnc3C)cc2)C(=O)NC(C)C)c1 [Compound 212]
,0.21,,COC(=O)/C=C/c1cccc(N(Cc2ccc(/C=C/c3c(F)cccc3F)cc2)C(=O)NC(C)C)c1 [Compound 191]
excellent activity,0.94,,COC(=O)C=Cc1cccc(N(Cc2ccc(C=Cc3c(F)cccc3F)cc2)C(=O)C2CCCCC2)c1 [Compound 189]
,0.32,,COC(=O)C=Cc1cccc(N(Cc2ccc(C=Cc3scnc3C)cc2)C(=O)C(C)C)c1 [Compound 211]
,0.80,,COC(=O)/C=C/c1cccc(N(Cc2ccc(-c3ccc(C)cc3)cc2)C(=O)NC(C)C)c1 [Compound 237]
,0.78,,COC(=O)/C=C/c1cccc(N(Cc2ccc(-c3ccc(OC(F)(F)F)cc3)cc2)C(=O)C(C)C)c1 [Compound 251]
,0.59,,COC(=O)/C=C/c1cccc(N(Cc2ccc(-c3ccc(C(C)(C)C)cc3)cc2)C(=O)C(C)C)c1 [Compound 263]
excellent activity,1.28,,COC(=O)/C=C/c1cccc(N(Cc2ccc(-c3cccc(OC)c3)cc2)C(=O)C(C)C)c1 [Compound 224]
,0.69,,COC(=O)/C=C/c1cccc(N(Cc2ccc(/C=C/c3ccccc3F)cc2)C(=O)NC(C)C)c1 [Compound 194]
excellent activity,1.33,,COC(=O)/C=C/c1cccc(N(Cc2ccc(/C=C/c3cccc(F)c3)cc2)C(=O)C(C)C)c1 [Compound 202]
,0.79,,COC(=O)/C=C/c1cccc(N(Cc2ccc(-c3cc(Cl)ccc3OC)cc2)C(=O)C(C)C)c1 [Compound 242]
excellent activity,0.12,,COC(=O)/C=C/c1cccc(N(Cc2ccc(-c3c(OC)cccc3OC)cc2)C(=O)C2CCCCC2)c1 [Compound 256]
,0.41,,COC(=O)/C=C/c1cccc(N(Cc2ccc(-c3cccc(OC)c3)cc2)C(=O)NC(C)C)c1 [Compound 225]
,0.28,,COC(=O)/C=C/c1cccc(N(Cc2ccc(-c3ccccc3OC)cc2)C(=O)C(C)C)c1 [Compound 219]
,1.64,,COC(=O)/C=C/c1cccc(N(Cc2ccc(-c3ccc(F)c(Cl)c3)cc2)C(=O)C(C)C)c1 [Compound 248]
excellent activity,1.17,,COC(=O)/C=C/c1cccc(N(Cc2ccc(/C=C/c3ccccc3F)cc2)C(=O)C(C)C)c1 [Compound 193]
,0.33,,CCOc1cccc(-c2ccc(CN(C(=O)NC(C)C)c3cccc(/C=C/C(=O)OC)c3)cc2)c1 [Compound 228]
